These results are taken from patent US20180186796A1, “COMPOUNDS AND USES THEREOF” (LEAD DISCOVERY SIENA S.R.L., priority 2014, published 2018).

By Papp is commonly meant a coefficient for how fast a substance crosses the barrier. Read a low Papp as slow passage. By Ki is commonly meant the equilibrium dissociation constant of an inhibitor or competing ligand from its target. What is called solubility is the concentration that dissolves in the medium under given conditions. A lower solubility goes with little dissolved substance. By thermodynamic solubility is commonly meant the concentration in solution at equilibrium with solid.

Series [1] is described as follows: Microsomal stability assay. Conditions: for Metabolic Stab.: percentage of unmodified parent drug, human liver microsomes 60 min; for Metabolic Stab. %: percentage of unmodified drug, Table 8.
Series [2] is described as follows: Water solubility assay. Particulars: for H2O Solubility: Table 6; for solubility at 24 h / solubility thermodynamic at 24 h: water, 20 °C, thermodynamic from solid.
Description: Each solid compound (1 mg) was added to 1 mL of water. […] The suspensions were filtered through a 0.45 μm nylon filter (Acrodisc), and the solubilized compound determined by LC-MS-MS assay. For each compound the determination was performed in triplicate. […] The flow rate was 0.2 mL min-^−1 and injection volume was 5 μL. The instrument operated in positive mode and parameters were: detector 1850 V, drying gas pressure 25.0 psi, desolvation temperature 300.0° C., nebulizing gas 40.0 psi, needle 5000 V and shield 600 V. Nitrogen was used as nebulizer gas and drying gas.
Solid compound (1 mg) was added to 1 mL of water. […] The suspensions were filtered through a 0.45-μm nylon filter (Acrodisc), and the solubilised compound determined by LC-UV-MS assay. The determination was performed in triplicate.
Chromatographic analysis was performed with the method above reported and quantification of compounds was made by comparison with apposite calibration curves realized with standard solutions in methanol.
Series [3] is described as follows: PAMPA, intestinal (GI) permeability. Particulars: for Papp / Papp at 5 h, 0.5 mM: PAMPA; for Papp: Table 6; for PAMPA GI (MR %): Membrane Retention; for Papp at 5 h, 0.5 mM: pH 7.4. (The PAMPA barrier holds no transporters, so it reflects passive diffusion.)
Description: (§1) Donor solution (0.5 mM) was prepared by diluting 1 mM dimethylsulfoxide (DMSO) compound stock solution using phosphate buffer (pH 7.4, 0.025 M). […] Donor solution (150 μL) was added to each well of the filter plate. To each well of the acceptor plate were added 300 μL of solution (50% DMSO in phosphate buffer). All compounds were tested in three different plates on different days. The sandwich was incubated for 5 h at room temperature under gentle shaking. After the incubation time, the plates were separated, and samples were taken from both receiver and donor sides and analyzed using LC with UV detection at 280 nm.
(§2) Permeability (Papp) for PAMPA was calculated according to the following equation, obtained from Wohnsland and Faller^27 and Sugano et al.^28 equation with some modification in order to obtain permeability values in cm s^−1,
(§3) Drug concentration is estimated by using the peak area integration. Membrane retentions (%) were calculated according to the following equation:
(§4) where r is the ratio between drug concentration in the acceptor and equilibrium concentration, D, A, and Eq represented drug concentration in the donor, acceptor and equilibrium solution, respectively.
(§5) Donor solution of tested compounds (0.5 mM) was prepared by diluting 1 mM dimethylsulfoxide (DMSO) compound stock solution using phosphate buffer (pH 7.4, 25 mM). […] Donor solution (150 μL) was added to each well of the filter plate. To each well of the acceptor plate were added 300 μL of solution (50% DMSO in phosphate buffer). Compounds was tested in three different plates on different days. The sandwich was incubated for 5 h at room temperature under gentle shaking.
(§6) Permeability (Papp) for PAMPA was calculated according to the following equation, obtained from Wohnsland and Faller and Sugano et al.^27, 28.
(§7) Drug concentration is estimated by using the peak area integration. Membrane retention (%) was calculated according to the following equation:
Series [4] concerns the target T1, Recombinant human Src (Homo sapiens, UniProt P12931).
T1 construct: purchased Upstate (Lake Placid, N.Y.)
As to the kind of experiment: Enzymatic assay on isolated Src. The format is biochemical.
Excerpt: Recombinant human Src was purchased from Upstate (Lake Placid, N.Y.).

Series [5] can be described thus: PAMPA, BBB permeability. Conditions: for PAMPA BBB (MR %): Membrane Retention; for Papp at 5 h, 0.5 mM: PAMPA, pH 7.4.
Description: as §1, §2, §3, §4, §5, §6, §7
Setting [6] is: mean of at least two experiments, read-out: Enzymatic Data (Ki, μM) c-Src.

≈ marks a conversion by molar mass, not a printed value. Like-named read-outs stand apart in the source and are kept apart here.

T1 sequence (P12931 whole entry): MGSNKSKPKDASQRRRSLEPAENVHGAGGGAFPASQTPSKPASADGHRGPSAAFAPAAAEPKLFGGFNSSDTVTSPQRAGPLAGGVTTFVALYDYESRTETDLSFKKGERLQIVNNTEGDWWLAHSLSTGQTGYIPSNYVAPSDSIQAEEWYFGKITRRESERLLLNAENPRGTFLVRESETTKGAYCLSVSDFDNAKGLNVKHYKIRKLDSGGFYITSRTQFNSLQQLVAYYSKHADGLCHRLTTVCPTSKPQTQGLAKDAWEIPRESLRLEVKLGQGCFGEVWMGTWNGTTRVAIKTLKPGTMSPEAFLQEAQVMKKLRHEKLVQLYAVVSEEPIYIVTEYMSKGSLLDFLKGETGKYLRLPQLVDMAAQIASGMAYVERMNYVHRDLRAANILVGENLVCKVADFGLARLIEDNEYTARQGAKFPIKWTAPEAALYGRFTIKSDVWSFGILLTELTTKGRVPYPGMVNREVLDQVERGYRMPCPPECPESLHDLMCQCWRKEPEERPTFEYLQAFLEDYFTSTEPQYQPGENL

As to `CC(Cn1ncc2c(Nc3cccc(O)c3)nc(SCCN3CCOCC3)nc21)c1ccccc1.Cl` (stereo not shown) [Si329, 3-{[6-[(2-Morpholin-4-ylethyl)thio]-1-(2-phenylpropyl)-1H-pyrazolo[3,4-d]pyrimidin-4-yl]amino}phenol hydrochloride], the “Metabolic Stab.” value in series [1] came to 99%. Moreover, the “H2O Solubility” value in series [2] turned out to be 1 µg/mL. Moreover, in series [3], the apparent permeability (Papp) is listed as 6.81 10^−6 cm/sec.

Consider `CSc1nc(Nc2cccc(O)c2)c2cnn(CCc3ccccc3)c2n1`, for which, in series [3], the Papp is 5.24 10^−6 cm/sec. The inhibition constant (Ki) in series [4] (setting [6]) was found to be 0.62 µM.

`CSc1nc(Nc2cccc(F)c2)c2cnn(CCc3ccccc3)c2n1`: the Papp in series [3] is 9.33 10^−6 cm/sec. For the same molecule, the Ki in series [4] (setting [6]) stood at 1.06 µM.

In the case of `CCSc1nc(Nc2cccc(Cl)c2)c2cnn(CC(C)c3ccccc3)c2n1` (stereo not shown), in series [3], the Papp is reported as 3.81 10^−6 cm/sec. Moreover, in series [4] (setting [6]), the Ki came out at 0.55 µM.

On to `CSc1nc(Nc2cccc(Cl)c2)c2cnn(CC(Cl)c3ccccc3)c2n1` (stereo not shown) [Si83, 1-(2-chloro-2-phenylethyl)-N-(3-chlorophenyl)-6-(methylthio)-1H-pyrazolo[3,4-d]pyrimidin-4-amine], for which, in series [5], the “PAMPA BBB (MR %)” value is given as “(39.6) %” and the apparent permeability (Papp) at 5 h, 0.5 mM is 3.14 ×10⁻⁶ cm/s. Moreover, in series [1], the “Metabolic Stab. %” value amounted to 91.1%. In series [2], this molecule yielded a solubility at 24 h of 0.295 µM (≈ 0.127 µg/mL) and a solubility (thermodynamic) at 24 h of 0.13 µg/mL (≈ 0.302 µM). Besides, in series [3], the “PAMPA GI (MR %)” value is “(69.9) %” and the Papp at 5 h, 0.5 mM was found to be 0.26 ×10⁻⁶ cm/s.

Take `CC(C)Sc1nc(Nc2ccccc2)c2cnn(CC(Cl)c3ccccc3)c2n1` (stereo not shown): the Ki in series [4] (setting [6]) was found to be 0.3 µM.

Turning to `CC(Cn1ncc2c(Nc3cccc(Cl)c3)nc(SCCN3CCOCC3)nc21)c1ccccc1` (stereo not shown), in series [3], the Papp was 5.51 10^−6 cm/sec. Besides, the Ki in series [4] (setting [6]) was determined as 0.97 µM.

As for `CSc1nc(NCCc2ccccc2)c2cnn(CC(Cl)c3ccccc3)c2n1` (stereo not shown) [Si35, 1-(2-chloro-2-phenylethyl)-6-(methylthio)-N-phenethyl-1H-pyrazolo[3,4-d]pyrimidin-4-amine], in series [5], the “PAMPA BBB (MR %)” value is “(24.5) %” and the Papp at 5 h, 0.5 mM turned out to be 6.17 ×10⁻⁶ cm/s. In addition, the “Metabolic Stab. %” value in series [1] is on record as 96.2%. In series [2], this molecule showed a solubility at 24 h of 0.166 µM (≈ 0.0704 µg/mL) and a thermodynamic solubility at 24 h of 0.07 µg/mL (≈ 0.165 µM). For the same molecule, in series [3], the “PAMPA GI (MR %)” value was “(33.0) %” and the apparent permeability coefficient (Papp) at 5 h, 0.5 mM worked out at 7.4 ×10⁻⁶ cm/s.

Consider `CC(Cn1ncc2c(Nc3ccccc3)nc(SCCN3CCOCC3)nc21)c1ccccc1` (stereo not shown), for which the Papp in series [3] is listed as 3.66 10^−6 cm/sec. Moreover, the Ki in series [4] (setting [6]) worked out at 1.44 µM.

Turning to `CCSc1nc(Nc2cccc(O)c2)c2cnn(CC(C)c3ccccc3)c2n1` (stereo not shown), the apparent permeability coefficient (Papp) in series [3] was 4.91 10^−6 cm/sec. Besides, the Ki in series [4] (setting [6]) stood at 0.11 µM.

In the case of `CC(C)Sc1nc(Nc2cccc(Br)c2)c2cnn(CC(Cl)c3ccccc3)c2n1` (stereo not shown), the Ki in series [4] (setting [6]) came to 0.62 µM.

For the molecule `CCSc1nc(Nc2cccc(Br)c2)c2cnn(CC(C)c3ccccc3)c2n1` (stereo not shown), the Papp in series [3] is 2.03 10^−6 cm/sec. Besides, the figures for the Ki in series [4] and in series [4] (setting [6]) were approximately 0.1 µM and 0.1 µM, respectively.

As for `Clc1cccc(Nc2nc(SCCN3CCOCC3)nc3c2cnn3CCc2ccccc2)c1`, in series [3], the Papp is recorded as 3.50 10^−6 cm/sec. Moreover, in series [4] (setting [6]), the inhibition constant Ki stood at 1.2 µM.

On to `CSc1nc(Nc2cccc(Br)c2)c2cnn(CCc3ccccc3)c2n1`, for which the apparent permeability (Papp) in series [3] is listed as 3.26 10^−6 cm/sec. Moreover, the Ki in series [4] (setting [6]) amounted to 0.2 µM.

`Cl.Oc1cccc(Nc2nc(SCCN3CCOCC3)nc3c2cnn3CCc2ccccc2)c1` [Si332, 3-{[6-[(2-Morpholin-4-ylethyl)thio]-1-(2-phenylethyl)-1H-pyrazolo[3,4-d]pyrimidin-4-yl]amino}phenol hydrochloride]: the “Metabolic Stab.” value in series [1] worked out at 97%. Besides, in series [2], the “H2O Solubility” value came to 97 µg/mL. In series [2] (aqueous), this molecule gave a solubility value of 97 µg/mL. In addition, the apparent permeability coefficient (Papp) in series [3] is reported as 6.38 10^−6 cm/sec.

As for `CC(Cn1ncc2c(Nc3cccc(F)c3)nc(SCCN3CCOCC3)nc21)c1ccccc1` (stereo not shown), in series [3], the Papp was 6.51 10^−6 cm/sec. Also, the Ki in series [4] (setting [6]) was determined as 2.34 µM.

Regarding `CCCCSc1nc(Nc2cccc(O)c2)c2cnn(CC(Cl)c3ccccc3)c2n1` (stereo not shown), the Papp in series [3] is on record as 3.43 10^−6 cm/sec. Further, the Ki in series [4] (setting [6]) is 0.13 µM.
